Experimental data from PMC3950950, “Fluorescent sensors for activity and regulation of the nitrate transceptor CHL1/NRT1.1 and oligopeptide transporters” (eLife, 2014).
Residues, ends and D or L forms follow the SMILES beside them.

Columns and labels:
Type in all cases: cell-based
[1] = target: T1, PepTrac1 (PTR1 fusion) (Arabidopsis thaliana, UniProt Q9M390); assay: fluorescence response (donor quenching) of sensor in yeast; conditions: 0.5 mM diglycine; 50 mM MES pH 5.5; excitation 428 nm
T1 construct: gene NPF8.1; full-length ORF between N-terminal Aphrodite and C-terminal mCerulean; expressed in yeast; intact cells
T1 sequence (Q9M390 1-570): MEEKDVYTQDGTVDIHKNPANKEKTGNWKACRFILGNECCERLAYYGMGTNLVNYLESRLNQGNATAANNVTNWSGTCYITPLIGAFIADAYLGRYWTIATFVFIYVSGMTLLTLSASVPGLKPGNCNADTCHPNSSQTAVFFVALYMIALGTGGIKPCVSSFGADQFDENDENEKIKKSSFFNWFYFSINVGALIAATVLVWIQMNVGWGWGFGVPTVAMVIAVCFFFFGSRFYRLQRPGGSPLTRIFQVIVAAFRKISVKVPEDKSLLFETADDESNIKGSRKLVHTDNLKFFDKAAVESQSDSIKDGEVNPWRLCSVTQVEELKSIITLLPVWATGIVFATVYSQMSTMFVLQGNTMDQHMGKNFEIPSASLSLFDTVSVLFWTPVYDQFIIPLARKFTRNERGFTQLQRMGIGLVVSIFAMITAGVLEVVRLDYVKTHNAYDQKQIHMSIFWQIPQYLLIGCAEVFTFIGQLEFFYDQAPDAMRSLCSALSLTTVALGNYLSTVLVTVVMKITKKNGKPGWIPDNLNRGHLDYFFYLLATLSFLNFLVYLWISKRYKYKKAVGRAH

[2] = target: T2, PepTrac5 (PTR5 fusion) (Arabidopsis thaliana, UniProt Q9LFB8); assay: as above; conditions: 0.5 mM diglycine; 50 mM MES pH 5.5; excitation 428 nm
T2 construct: gene NPF8.2; full-length ORF between N-terminal Aphrodite and C-terminal mCerulean; expressed in yeast; intact cells
T2 sequence (Q9LFB8 1-570): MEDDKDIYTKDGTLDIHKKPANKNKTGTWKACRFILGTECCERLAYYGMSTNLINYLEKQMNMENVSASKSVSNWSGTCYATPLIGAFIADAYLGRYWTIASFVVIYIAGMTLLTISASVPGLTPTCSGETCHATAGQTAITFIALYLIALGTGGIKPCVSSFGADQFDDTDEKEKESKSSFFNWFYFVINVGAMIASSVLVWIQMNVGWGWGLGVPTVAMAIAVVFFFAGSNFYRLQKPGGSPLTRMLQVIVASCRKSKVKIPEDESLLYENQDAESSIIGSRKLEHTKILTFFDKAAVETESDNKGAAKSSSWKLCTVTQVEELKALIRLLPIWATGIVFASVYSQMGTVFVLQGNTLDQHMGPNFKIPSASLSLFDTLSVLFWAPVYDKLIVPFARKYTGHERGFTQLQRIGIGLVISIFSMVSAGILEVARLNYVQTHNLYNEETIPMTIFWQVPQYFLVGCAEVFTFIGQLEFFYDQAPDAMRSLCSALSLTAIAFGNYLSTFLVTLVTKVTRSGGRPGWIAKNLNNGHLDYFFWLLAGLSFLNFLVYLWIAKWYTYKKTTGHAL

[3] = target: T3, PepTrac2 (PTR2 fusion) (Arabidopsis thaliana, UniProt P46032); assay: as above; conditions: 0.5 mM diglycine; 50 mM MES pH 5.5; excitation 428 nm
T3 construct: gene NPF8.3; full-length ORF between N-terminal Aphrodite and C-terminal mCerulean; expressed in yeast; intact cells
T3 sequence (P46032 1-585): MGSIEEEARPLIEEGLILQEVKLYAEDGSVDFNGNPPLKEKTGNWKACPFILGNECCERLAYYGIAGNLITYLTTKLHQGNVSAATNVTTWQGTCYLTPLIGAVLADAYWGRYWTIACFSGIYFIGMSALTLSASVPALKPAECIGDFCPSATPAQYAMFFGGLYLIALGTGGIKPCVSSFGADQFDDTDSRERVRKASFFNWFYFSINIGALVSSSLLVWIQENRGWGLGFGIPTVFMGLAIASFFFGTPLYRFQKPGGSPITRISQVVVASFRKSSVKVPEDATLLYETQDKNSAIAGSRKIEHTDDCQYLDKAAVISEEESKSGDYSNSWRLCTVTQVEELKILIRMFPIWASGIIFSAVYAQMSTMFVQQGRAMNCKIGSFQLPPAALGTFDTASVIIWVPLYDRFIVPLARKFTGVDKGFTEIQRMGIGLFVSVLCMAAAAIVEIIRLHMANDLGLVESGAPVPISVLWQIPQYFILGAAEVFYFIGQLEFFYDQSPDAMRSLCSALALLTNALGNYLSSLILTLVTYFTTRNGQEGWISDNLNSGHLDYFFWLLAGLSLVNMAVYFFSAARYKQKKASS

[4] = target: T4, PepTrac4 (PTR4 fusion) (Arabidopsis thaliana, UniProt Q84WG0); assay: FRET ratio change of sensor in yeast; conditions: 0.5 mM diglycine; 50 mM MES pH 5.5; excitation 428 nm
T4 construct: gene NPF8.4; full-length ORF between N-terminal Aphrodite and C-terminal mCerulean; expressed in yeast; intact cells
T4 sequence (Q84WG0 1-545): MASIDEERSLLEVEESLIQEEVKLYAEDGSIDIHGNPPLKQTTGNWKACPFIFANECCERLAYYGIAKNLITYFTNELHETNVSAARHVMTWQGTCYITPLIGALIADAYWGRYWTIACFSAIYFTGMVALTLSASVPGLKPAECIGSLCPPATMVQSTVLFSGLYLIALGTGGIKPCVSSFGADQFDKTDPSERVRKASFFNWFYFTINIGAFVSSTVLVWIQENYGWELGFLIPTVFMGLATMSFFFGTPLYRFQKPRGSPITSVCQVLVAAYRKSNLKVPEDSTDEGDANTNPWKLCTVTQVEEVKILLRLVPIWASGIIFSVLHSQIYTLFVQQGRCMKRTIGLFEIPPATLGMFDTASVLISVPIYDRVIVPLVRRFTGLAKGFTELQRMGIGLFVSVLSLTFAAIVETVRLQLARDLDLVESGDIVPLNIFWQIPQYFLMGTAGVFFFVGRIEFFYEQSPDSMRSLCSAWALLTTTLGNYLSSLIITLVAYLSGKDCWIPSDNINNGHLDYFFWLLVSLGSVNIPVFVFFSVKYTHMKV

[5] = target: T5, NiTrac1 (CHL1/NRT1.1/NPF6.3 fusion) (Arabidopsis thaliana, UniProt Q05085); assay: fluorescence response (donor quenching) of sensor in yeast, plate reader; conditions: 50 mM MES pH 5.5; high-affinity phase of biphasic response (low-affinity phase is a second site); excitation 428 nm
T5 construct: full-length ORF between N-terminal Aphrodite t9 (yellow FP) and C-terminal mCerulean (pDRFlip30); expressed in yeast BJ5465; intact cells
T5 sequence (Q05085 1-590): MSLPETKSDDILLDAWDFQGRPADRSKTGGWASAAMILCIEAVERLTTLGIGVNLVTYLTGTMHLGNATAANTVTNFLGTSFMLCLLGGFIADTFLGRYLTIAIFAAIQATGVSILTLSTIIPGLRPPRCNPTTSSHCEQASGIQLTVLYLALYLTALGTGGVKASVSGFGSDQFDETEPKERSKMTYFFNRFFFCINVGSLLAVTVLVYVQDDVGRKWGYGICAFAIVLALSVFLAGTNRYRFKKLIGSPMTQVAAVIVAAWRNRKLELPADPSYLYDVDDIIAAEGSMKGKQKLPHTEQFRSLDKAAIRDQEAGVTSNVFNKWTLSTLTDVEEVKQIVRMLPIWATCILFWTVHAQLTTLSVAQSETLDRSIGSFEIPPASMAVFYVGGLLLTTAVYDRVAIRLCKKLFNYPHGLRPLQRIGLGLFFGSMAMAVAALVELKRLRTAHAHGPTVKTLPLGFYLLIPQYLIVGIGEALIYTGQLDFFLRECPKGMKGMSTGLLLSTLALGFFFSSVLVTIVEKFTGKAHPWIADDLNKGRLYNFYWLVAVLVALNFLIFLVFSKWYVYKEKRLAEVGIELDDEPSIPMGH

[6] = target: T6, CHL1/NRT1.1/NPF6.3 (Arabidopsis thaliana, UniProt Q05085); assay: […]-nitrate uptake and TEVC currents in Xenopus oocytes; conditions: 0.25 and 10 mM K15NO3, pH 5.5 (uptake); 0.5 and 10 mM CsNO3 (TEVC)
T6 construct: CHL1 cDNA without fluorescent proteins in pOO2-GW; cRNA-injected Xenopus laevis oocytes
T6 sequence (Q05085 1-590): T5 sequence (Q05085 1-590)

SMILES	fluorescence response (donor quenching) of sensor in yeast [1]	fluorescence response (donor quenching) of sensor in yeast [2]	fluorescence response (donor quenching) of sensor in yeast [3]	FRET ratio change of sensor in yeast [4]	Km [5]	15N-nitrate uptake and TEVC currents in Xenopus oocytes [6]
NCC(=O)NCC(=O)O [diglycine] (H-Gly-Gly-OH)	PepTrac1, PepTrac2, and PepTrac5 sensors all responded with donor quenching	PepTrac1, PepTrac2, and PepTrac5 sensors all responded with donor quenching	PepTrac1, PepTrac2, and PepTrac5 sensors all responded with donor quenching	PepTrac4 responded to substrate addition with a ratio change	–	–
O=[N+]([O-])O [nitrate]	–	–	–	–	~ 75.1 ± 21 μM	In response to nitrate addition, CHL1 expressing oocytes showed an inward current
